In the supplement of paper PMC10307832:

Experiments:
Assay in all cases: relative viability (nuclei count vs DMSO), 5 days (fraction); higher = more cells survive
Carfilzomib + Dasatinib = compound: CC(C)C[C@H](NC(=O)[C@H](CCc1ccccc1)NC(=O)CN1CCOCC1)C(=O)N[C@@H](Cc1ccccc1)C(=O)N[C@@H](CC(C)C)C(=O)[C@@]1(C)CO1 [Carfilzomib] + Cc1nc(Nc2ncc(C(=O)Nc3c(C)cccc3Cl)s2)cc(N2CCN(CCO)CC2)n1 [Dasatinib] (partner 0.075 µM)
Method in brief: (§1)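 A single step with final 0.05% Triton X-100, 1% formaldehyde and 1 ug/ml Hoechst fixed the cells and stained nuclei 5 days after treatment. Lung cancer cell lines in 1536-well plates had been treated by pin tool the day after seeding with one drug alone or a fixed anchor-drug dose plus five library-drug doses (not always all listed) in √10 steps, and nuclei were counted on 4× images. Relative viability is the ratio of nuclei in treated wells to nuclei in vehicle wells, taken as the median of duplicate plates.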

Crizotinib + Pictilisib = compound: C[C@@H](Oc1cc(-c2cnn(C3CCNCC3)c2)cnc1N)c1c(Cl)ccc(F)c1Cl [Crizotinib] + CS(=O)(=O)N1CCN(Cc2cc3nc(-c4cccc5[nH]ncc45)nc(N4CCOCC4)c3s2)CC1 [Pictilisib] (partner 1 µM)
Method in brief: as §1

Crizotinib + OSI-027 = compound: C[C@@H](Oc1cc(-c2cnn(C3CCNCC3)c2)cnc1N)c1c(Cl)ccc(F)c1Cl [Crizotinib] + COc1cccc2cc(-c3nc([C@H]4CC[C@H](C(=O)O)CC4)n4ncnc(N)c34)[nH]c12 [OSI-027] (partner 0.5 µM)
Method in brief: as §1

Crizotinib + Vorinostat = compound: C[C@@H](Oc1cc(-c2cnn(C3CCNCC3)c2)cnc1N)c1c(Cl)ccc(F)c1Cl [Crizotinib] + O=C(CCCCCCC(=O)Nc1ccccc1)NO [Vorinostat] (partner 1 µM)
Method in brief: as §1

Row | Cell Line | relative viability (Carfilzomib + Dasatinib; first compound 0.001 µM) | relative viability (Carfilzomib + Dasatinib; first compound 0.003162 µM) | relative viability (Carfilzomib + Dasatinib; first compound 0.01 µM) | relative viability (Carfilzomib + Dasatinib; first compound 0.03162 µM) | relative viability (Carfilzomib + Dasatinib; first compound 0.1 µM) | relative viability (Crizotinib + Pictilisib; first compound 0.01 µM) | relative viability (Crizotinib + Pictilisib; first compound 0.03162 µM) | relative viability (Crizotinib + Pictilisib; first compound 0.1 µM) | relative viability (Crizotinib + Pictilisib; first compound 0.3162 µM) | relative viability (Crizotinib + Pictilisib; first compound 1 µM) | relative viability (Crizotinib + OSI-027; first compound 0.01 µM) | relative viability (Crizotinib + OSI-027; first compound 0.03162 µM) | relative viability (Crizotinib + OSI-027; first compound 0.1 µM) | relative viability (Crizotinib + OSI-027; first compound 0.3162 µM) | relative viability (Crizotinib + OSI-027; first compound 1 µM) | relative viability (Crizotinib + Vorinostat; first compound 0.01 µM) | relative viability (Crizotinib + Vorinostat; first compound 0.03162 µM) | relative viability (Crizotinib + Vorinostat; first compound 0.1 µM) | relative viability (Crizotinib + Vorinostat; first compound 0.3162 µM) | relative viability (Crizotinib + Vorinostat; first compound 1 µM)
1 | 201T | 0.51 | 0.61 | 0.643 | 0.593 | 0.522 | 0.65 | 0.74 | 0.723 | 0.648 | 0.678 | 0.635 | 0.744 | 0.668 | 0.77 | 0.698 | 0.899 | 1.01 | 0.98 | 0.974 | 1.04
2 | A549 |  |  |  |  |  | 0.558 | 0.439 | 0.521 | 0.543 | 0.53 |  |  |  |  |  |  |  |  |  | 
3 | A-427 | 0.776 | 0.853 | 0.597 | 0.0935 | 0.107 | 0.529 | 0.655 | 0.668 |  | 0.675 | 0.352 | 0.447 | 0.414 |  | 0.441 | 0.836 | 0.871 | 0.876 |  | 0.899
4 | ABC-1 | 0.521 | 0.504 | 0.196 | 0.172 | 0.324 | 0.54 | 0.781 | 0.588 | 0.743 | 0.728 |  | 0.526 | 0.426 | 0.422 | 0.402 | 1.04 | 1.06 | 1.22 |  | 1.02
5 | BEN | 0.294 | 0.328 | 0.299 | 0.298 | 0.203 | 0.608 | 0.492 | 0.52 | 0.581 | 0.576 | 0.308 | 0.3 | 0.296 | 0.307 | 0.286 | 0.553 | 0.55 | 0.628 | 0.506 | 0.573
6 | CAL-12T | 0.321 | 0.484 | 0.509 | 0.174 | 0.108 | 0.345 | 0.472 | 0.466 |  | 0.355 | 0.639 | 0.71 | 0.67 |  | 0.586 | 0.855 | 0.788 | 0.647 | 0.713 | 0.725
7 | COR-L23 | 0.478 | 0.523 | 0.425 | 0.0606 | 0.0642 | 0.695 | 0.747 | 0.705 | 0.771 | 0.775 | 0.742 | 0.73 | 0.674 | 0.76 | 0.723 | 0.43 | 0.418 | 0.484 | 0.4 | 0.471
8 | COR-L 105 | 0.409 | 0.393 | 0.319 | 0.235 | 0.167 | 0.353 | 0.386 | 0.39 | 0.354 | 0.403 | 0.577 | 0.803 | 0.657 | 0.562 | 0.728 | 0.824 | 0.96 | 0.696 | 0.858 | 0.893
9 | Calu-6 |  |  |  |  |  | 0.881 | 0.942 |  | 0.937 | 0.865 |  |  |  |  |  |  |  |  |  | 
10 | ChaGo-K-1 | 0.546 | 0.591 | 0.585 | 0.335 | 0.203 | 0.736 | 0.651 | 0.825 |  | 0.567 | 0.438 | 0.675 | 0.502 | 0.435 | 0.53 | 0.703 | 0.706 | 0.712 | 0.4 | 0.727
11 | EBC-1 |  |  |  |  |  | 0.378 | 0.215 | 0.159 | 0.202 | 0.198 |  |  |  |  |  |  |  |  |  | 
12 | EKVX | 0.49 | 0.342 | 0.597 | 0.478 | 0.214 | 0.406 | 0.419 | 0.463 | 0.453 | 0.47 | 0.744 | 0.737 | 0.756 | 0.651 | 0.744 | 0.455 | 0.662 | 0.708 | 0.712 | 0.637
13 | EMC-BAC-2 | 0.327 | 0.363 | 0.35 | 0.256 | 0.256 | 0.514 | 0.536 | 0.527 | 0.305 | 0.52 | 0.431 | 0.391 | 0.342 | 0.295 | 0.36 | 0.524 | 0.418 | 0.494 |  | 0.365
14 | EPLC-272H | 0.379 | 0.407 | 0.215 | 0.0812 | 0.0631 | 0.287 | 0.365 | 0.327 | 0.3 | 0.299 | 0.312 | 0.253 | 0.287 | 0.252 | 0.259 | 0.41 | 0.398 | 0.361 | 0.403 | 0.581
15 | H3255 | 0.356 | 0.431 | 0.486 | 0.339 | 0.355 | 0.36 | 0.486 | 0.533 | 0.468 | 0.456 | 0.6 | 0.652 | 0.633 | 0.509 | 0.61 | 0.782 | 0.841 | 0.765 | 0.784 | 0.999
16 | HARA | 0.324 | 0.312 | 0.32 | 0.0493 | 0.0578 | 0.351 | 0.441 | 0.262 | 0.511 | 0.46 | 0.543 | 0.504 | 0.46 |  | 0.432 | 0.494 | 0.491 | 0.532 | 0.54 | 0.523
17 | HCC-15 | 0.609 | 0.654 | 0.673 | 0.3 | 0.0867 | 0.622 | 0.69 | 0.722 | 0.391 | 0.687 | 0.626 | 0.754 | 0.633 |  | 0.568 | 0.802 | 0.875 | 0.926 | 0.847 | 0.875
18 | HCC-44 |  |  |  |  |  | 0.464 | 0.578 | 0.538 | 0.665 | 0.503 | 0.409 | 0.546 | 0.611 | 0.54 | 0.371 | 1.03 | 1.13 | 1.18 | 1.01 | 1.14
19 | HCC-78 | 0.228 | 0.459 | 0.323 | 0.435 | 0.2 | 0.204 | 0.206 | 0.205 | 0.167 | 0.204 |  | 0.365 | 0.29 | 0.307 | 0.34 | 0.418 | 0.388 | 0.402 | 0.336 | 0.437
